As usually defined, the IC50 is the concentration that gives 50% inhibition.

Assay [1] relates to HCT116 cells. In words: Antiproliferation assay, Cell Titer Glo, 72 hours. It is filed as cell-based. The protocol:
HCT116 cells were plated in 384-well plates at 750 cells/well in 50 ul fresh media (McCoy's 5A+10% FBS+1% Penn/Strep) and treated with 0.1 μl candidate compounds in four-fold dilution series using the Janus pinner. Cells were incubated with compounds for 72 hours in 37° C. 5% CO2. Anti-proliferative effects of these compounds were assessed 72 hours after compound addition using Cell Titer Glo (Promega cat #G7571) as described in product manual by luminescence measurements using an Envision platereader. All proliferation assays were performed in biological quadruplicate. IC50 values were determined using a non-linear regression curve fit in GraphPad Prism 6.
In general terms: Cellular ATP, detected with luciferase, serves as a proxy for viable cell number.

Assay [2] has as its target Cdk14/CycY (Homo sapiens (Human), UniProt O94921). Kind of assay: Lanthascreen Eu kinase binding assay for Cdk14/CycY with 30 minute pre-incubation. The conditions noted are these: 30 minute pre-incubation of kinase with compound; read-out: IC50 CDK14 binding by Lanthascreen. The protocol: Lanthascreen Eu kinase binding assays were conducted for Cdk14/CycY largely as performed in the commercial assay service by Life Technologies, but included a 30 minute pre-incubation step of the kinase with candidate compounds to facilitate covalent bond formation.
(In general: TR-FRET usually uses a lanthanide donor and a delayed reading to cut background.)

Read-outs that look alike come from different tables or passages of the source. Bounds are passed on as bounds.

Chain of Cdk14/CycY (O94921 whole entry): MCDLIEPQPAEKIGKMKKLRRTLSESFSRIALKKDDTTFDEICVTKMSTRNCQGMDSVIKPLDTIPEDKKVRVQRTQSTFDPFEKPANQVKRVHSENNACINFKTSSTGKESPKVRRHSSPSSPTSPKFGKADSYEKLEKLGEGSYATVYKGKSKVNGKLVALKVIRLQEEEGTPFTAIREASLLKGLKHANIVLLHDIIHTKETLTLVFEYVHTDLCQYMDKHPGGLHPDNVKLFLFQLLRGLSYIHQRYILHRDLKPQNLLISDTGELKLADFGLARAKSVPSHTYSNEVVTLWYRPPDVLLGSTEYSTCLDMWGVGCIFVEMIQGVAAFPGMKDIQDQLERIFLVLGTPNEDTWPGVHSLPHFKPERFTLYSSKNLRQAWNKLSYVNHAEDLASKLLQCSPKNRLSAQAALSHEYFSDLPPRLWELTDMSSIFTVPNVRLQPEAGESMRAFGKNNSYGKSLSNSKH
Chain of Cdk14/CycY (Q8ND76 whole entry partner): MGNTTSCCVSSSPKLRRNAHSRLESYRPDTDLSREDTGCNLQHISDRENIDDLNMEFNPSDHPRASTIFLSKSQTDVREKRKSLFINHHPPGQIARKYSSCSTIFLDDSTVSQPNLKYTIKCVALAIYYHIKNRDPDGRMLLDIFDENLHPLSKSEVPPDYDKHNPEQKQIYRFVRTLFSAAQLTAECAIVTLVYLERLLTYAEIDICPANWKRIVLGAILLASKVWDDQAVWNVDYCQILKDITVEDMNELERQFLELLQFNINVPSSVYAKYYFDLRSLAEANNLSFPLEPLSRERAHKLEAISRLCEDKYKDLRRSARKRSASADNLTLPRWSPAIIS

In the case of `C=CC(=O)Nc1cccc(N2CCC(NC(=O)c3n[nH]cc3NC(=O)c3c(Cl)cccc3Cl)C2)c1` (stereo in doubt) [FMF-05-086-1, (S)—N-(1-(3-acrylamidophenyl)pyrrolidin-3-yl)-4-(2,6-dichlorobenzamido)-1H-pyrazole-3-carboxamide], the IC50 in assay [1] was 826 nM; in assay [2], 1100 nM.

As for `C=CC(=O)N1CCC(NC(=O)c2n[nH]cc2NC(=O)c2c(Cl)cccc2Cl)CC1` [FMF-03-177-1, N-(1-acryloylpiperidin-4-yl)-4-(2,6-dichlorobenzamido)-1H-pyrazole-3-carboxamide], the IC50 in assay [1] (Homo sapiens, HCT-116, 72 h) amounted to 341 nM; in assay [2], 401 nM.

As for `CN(C)C/C=C/C(=O)N1CCC(NC(=O)c2n[nH]cc2NC(=O)c2c(Cl)cccc2Cl)CC1` [FMF-03-177-2, (E)-4-(2,6-dichlorobenzamido)-N-(1-(4-(dimethylamino)but-2-enoyl)piperidin-4-yl)-1H-pyrazole-3-carboxamide], the IC50 amounted to 1060 nM in assay [1] (Homo sapiens, HCT-116, 72 h) and 208 nM in assay [2].

`C=CC(=O)Nc1ccc(NC(=O)c2n[nH]cc2NC(=O)c2c(Cl)cccc2Cl)cc1` [FMF-03-182-1, N-(4-acrylamidophenyl)-4-(2,6-dichlorobenzamido)-1H-pyrazole-3-carboxamide]: the IC50 in assay [1] (Homo sapiens, HCT-116, 72 h) was 17 nM; in assay [2], more than 1000 nM.

Turning to `CN(C)C/C=C/C(=O)Nc1ccc(NC(=O)c2n[nH]cc2NC(=O)c2c(Cl)cccc2Cl)cc1` [FMF-03-182-2, (E)-4-(2,6-dichlorobenzamido)-N-(4-(4-(dimethylamino)but-2-enamido)phenyl)-1H-pyrazole-3-carboxamide], the IC50 was 395 nM in assay [1] (Homo sapiens, HCT-116, 72 h) and 82 nM in assay [2].

For `C=CC(=O)N1CCC[C@@H](NC(=O)c2n[nH]cc2NC(=O)c2c(Cl)cccc2Cl)C1` [FMF-03-183-1, (R)—N-(1-acryloylpiperidin-3-yl)-4-(2,6-dichlorobenzamido)-1H-pyrazole-3-carboxamide], the IC50 is 39 nM in assay [1] (Homo sapiens, HCT-116, 72 h) and 569 nM in assay [2].

In the case of `CN(C)C/C=C/C(=O)N1CCC[C@@H](NC(=O)c2n[nH]cc2NC(=O)c2c(Cl)cccc2Cl)C1` [FMF-03-183-2, (R,E)-4-(2,6-dichlorobenzamido)-N-(1-(4-(dimethylamino)but-2-enoyl)piperidin-3-yl)-1H-pyrazole-3-carboxamide], the IC50 in assay [1] (Homo sapiens, HCT-116, 72 h) worked out at 157 nM; in assay [2] it was 148 nM.

Turning to `C=CC(=O)N1CCC[C@H](NC(=O)c2n[nH]cc2NC(=O)c2c(Cl)cccc2Cl)C1` [FMF-03-184-1, (S)—N-(1-acryloylpiperidin-3-yl)-4-(2,6-dichlorobenzamido)-1H-pyrazole-3-carboxamide], the IC50 in assay [1] (Homo sapiens, HCT-116, 72 h) was 737 nM; in assay [2], 479 nM.

On to `CN(C)C/C=C/C(=O)N1CCC[C@H](NC(=O)c2n[nH]cc2NC(=O)c2c(Cl)cccc2Cl)C1` [FMF-03-184-2, (S,E)-4-(2,6-dichlorobenzamido)-N-(1-(4-(dimethylamino)but-2-enoyl)piperidin-3-yl)-1H-pyrazole-3-carboxamide], for which the IC50 amounted to 1340 nM in assay [1] (Homo sapiens, HCT-116, 72 h) and 976 nM in assay [2].

With `C=CC(=O)Nc1ccc(C(=O)N2CCC(NC(=O)c3n[nH]cc3NC(=O)c3c(Cl)cccc3Cl)CC2)cc1` [FMF-03-186-1, N-(1-(4-acrylamidobenzoyl)piperidin-4-yl)-4-(2,6-dichlorobenzamido)-1H-pyrazole-3-carboxamide], the IC50 in assay [1] (Homo sapiens, HCT-116, 72 h) came to 42 nM; in assay [2], 126 nM.

`CN(C)C/C=C/C(=O)Nc1ccc(C(=O)N2CCC(NC(=O)c3n[nH]cc3NC(=O)c3c(Cl)cccc3Cl)CC2)cc1` [FMF-03-187-1, (E)-4-(2,6-dichlorobenzamido)-N-(1-(4-(4-(dimethylamino)but-2-enamido)benzoyl)piperidin-4-yl)-1H-pyrazole-3-carboxamide]: the IC50 worked out at 71 nM in assay [1] (Homo sapiens, HCT-116, 72 h) and 82 nM in assay [2].

Take `C=CC(=O)Nc1cccc(NC(=O)c2n[nH]cc2NC(=O)c2c(Cl)cccc2Cl)c1` [FMF-03-188-1, N-(3-acrylamidophenyl)-4-(2,6-dichlorobenzamido)-1H-pyrazole-3-carboxamide]: the IC50 in assay [1] (Homo sapiens, HCT-116, 72 h) is 169 nM; in assay [2] it was more than 1000 nM.

With `CN(C)C/C=C/C(=O)Nc1cccc(NC(=O)c2n[nH]cc2NC(=O)c2c(Cl)cccc2Cl)c1` [FMF-03-188-2, (E)-4-(2,6-dichlorobenzamido)-N-(3-(4-(dimethylamino)but-2-enamido)phenyl)-1H-pyrazole-3-carboxamide], the IC50 amounted to 723 nM in assay [1] (Homo sapiens, HCT-116, 72 h) and 88 nM in assay [2].

With `CN(C)C/C=C/C(=O)Nc1cccc(C(=O)N2CCC(NC(=O)c3n[nH]cc3NC(=O)c3c(Cl)cccc3Cl)CC2)c1` [FMF-03-196-2, (E)-4-(2,6-dichlorobenzamido)-N-(1-(3-(4-(dimethylamino)but-2-enamido)benzoyl)piperidin-4-yl)-1H-pyrazole-3-carboxamide], the IC50 in assay [1] (Homo sapiens, HCT-116, 72 h) worked out at 485 nM; in assay [2], 77 nM.

Take `C=CC(=O)Nc1cccc(CN2CCC(NC(=O)c3n[nH]cc3NC(=O)c3c(Cl)cccc3Cl)CC2)c1` [FMF-03-200-1, N-(1-(3-acrylamidobenzyl)piperidin-4-yl)-4-(2,6-dichlorobenzamido)-1H-pyrazole-3-carboxamide]: half-maximal inhibition in assay [1] (Homo sapiens, HCT-116, 72 h) (IC50) required 0.9 nM.

Turning to `CN(C)C/C=C/C(=O)Nc1ccc(S(=O)(=O)N2CCC[C@@H](NC(=O)c3n[nH]cc3NC(=O)c3c(Cl)cccc3Cl)C2)cc1` [FMF-04-056-2, (R,E)-4-(2,6-dichlorobenzamido)-N-(1-((4-(4-(dimethylamino)but-2-enamido)phenyl)sulfonyl)piperidin-3-yl)-1H-pyrazole-3-carboxamide], the IC50 in assay [1] (Homo sapiens, HCT-116, 72 h) was more than 10000 nM.

Consider `C=CC(=O)Nc1cccc(C(=O)Nc2ccc(NC(=O)c3n[nH]cc3NC(=O)c3c(Cl)cccc3Cl)c(C)c2)c1` [FMF-04-085-1, N-(4-(3-acrylamidobenzamido)-2-methylphenyl)-4-(2,6-dichlorobenzamido)-1H-pyrazole-3-carboxamide], for which the IC50 in assay [2] is more than 1000 nM.

`C=CC(=O)Nc1cccc(S(=O)(=O)N2CCC(NC(=O)c3n[nH]cc3NC(=O)c3c(Cl)cccc3OC)CC2)c1` [FMF-04-107-1, N-(1-((3-acrylamidophenyl)sulfonyl)piperidin-4-yl)-4-(2-chloro-6-methoxybenzamido)-1H-pyrazole-3-carboxamide] came in with an IC50 in assay [1] (Homo sapiens, HCT-116, 72 h) of 115 nM.

With `CN(/C=C/C(=O)Nc1cccc(CN2CCC(NC(=O)c3n[nH]cc3NC(=O)c3c(Cl)cccc3Cl)CC2)c1)CCCCC1C[C@@H]2NC(=O)N[C@@H]2S1` (stereo partly shown) [FMF-04-131-1], the IC50 in assay [2] is 49 nM.

Turning to `CN(C/C=C/C(=O)Nc1cccc(S(=O)(=O)N2CCC(NC(=O)c3n[nH]cc3NC(=O)c3c(Cl)cccc3Cl)CC2)c1)CCC(=O)NCCOCCOCCOCCNC(=O)CCCC[C@@H]1SC[C@@H]2NC(=O)N[C@@H]21` [FMF-04-153-1, 4-(2,6-dichlorobenzamido)-N-(1-((3-((E)-5-methyl-8,22-dioxo-26-((3aS,4S,6aR)-2-oxohexahydro-1H-thieno[3,4-d]imidazol-4-yl)-12,15,18-trioxa-5,9,21-triazahexacos-2-enamido)phenyl)sulfonyl)piperidin-4-yl)-1H-pyrazole-3-carboxamide], in assay [2], the IC50 was 8 nM.

The molecule `CN(C)C/C=C/C(=O)Nc1cccc(CN2CCC(NC(=O)c3n[nH]cc3NC(=O)c3c(Cl)cc(Cl)cc3Cl)CC2)c1` [FMF-04-158-2, (E)-N-(1-(3-(4-(dimethylamino)but-2-enamido)benzyl)piperidin-4-yl)-4-(2,4,6-trichlorobenzamido)-1H-pyrazole-3-carboxamide] came in with an IC50 in assay [1] (Homo sapiens, HCT-116, 72 h) of 156 nM.

`C=CC(=O)Nc1cccc(S(=O)(=O)N2CCC(NC(=O)c3nn(C)cc3NC(=O)c3c(Cl)cccc3Cl)CC2)c1` [FMF-04-180-1, N-(1-((3-acrylamidophenyl)sulfonyl)piperidin-4-yl)-4-(2,6-dichlorobenzamido)-1-methyl-1H-pyrazole-3-carboxamide] came in with an IC50 in assay [1] (Homo sapiens, HCT-116, 72 h) of 9000 nM.

Molecule `CN(C)C/C=C/C(=O)Nc1cccc(S(=O)(=O)N2CCC(NC(=O)c3nn(C)cc3NC(=O)c3c(Cl)cccc3Cl)CC2)c1` [FMF-04-180-2, (E)-4-(2,6-dichlorobenzamido)-N-(1-((3-(4-(dimethylamino)but-2-enamido)phenyl)sulfonyl)piperidin-4-yl)-1-methyl-1H-pyrazole-3-carboxamide] showed an IC50 in assay [1] (Homo sapiens, HCT-116, 72 h) of more than 10000 nM.

Regarding `COc1cccc(Cl)c1C(=O)Nc1c[nH]nc1C(=O)NC1CCN(S(=O)(=O)c2cccc(NC(=O)/C=C/CN(C)CCC(=O)NCCOCCOCCOCCNC(=O)CCCCC[C@H]3NC(=O)N[C@H]3C)c2)CC1` [FMF-05-035-1, 4-(2-chloro-6-methoxybenzamido)-N-(1-((3-((E)-5-methyl-27-((4R,5S)—5-methyl-2-oxoimidazolidin-4-yl)-8,22-dioxo-12,15,18-trioxa-5,9,21-triazaheptacos-2-enamido)phenyl)sulfonyl)piperidin-4-yl)-1H-pyrazole-3-carboxamide], in assay [2], the IC50 worked out at 46 nM.

As to `CN(C)C/C=C/C(=O)Nc1cccc(CNC(=O)c2n[nH]cc2NC(=O)c2c(Cl)cccc2Cl)c1` [FMF-05-067-2, (E)-4-(2,6-dichlorobenzamido)-N-(3-(4-(dimethylamino)but-2-enamido)benzyl)-1H-pyrazole-3-carboxamide], the IC50 in assay [1] (Homo sapiens, HCT-116, 72 h) was more than 10000 nM.

Take `C=CC(=O)Nc1cccc(N2CCC(NC(=O)c3n[nH]cc3NC(=O)c3c(Cl)cccc3Cl)CC2)c1` [FMF-05-085-1, N-(1-(3-acrylamidophenyl)piperidin-4-yl)-4-(2,6-dichlorobenzamido)-1H-pyrazole-3-carboxamide]: the IC50 in assay [1] (Homo sapiens, HCT-116, 72 h) stood at 93 nM.

These data come from patent publication US12187701B2, “Taire family kinase inhibitors and uses thereof” (Dana-Farber Cancer Institute, Inc., priority 2018, dated 2025).
